Type in all cases: functional
In experiment [1] the test system is HeLa. Nature of the experiment: Induction of cell cycle arrest in human HeLa cells assessed as accumulation at G1 phase at 100 uM after 24 hrs by propidium iodide staining based flow cytometry (reference value: 45%). A general note: A flow cytometer gives signals particle by particle.
Experiment [2] in a line: Antiproliferative activity against mouse MBEC assessed as inhibition of cell proliferation after 3 days by Coulter counter based cell counting method. The conditions noted are these: 72 h.
Experiment [3] concerns HeLa. Put plainly: Induction of cell cycle arrest in human HeLa cells assessed as accumulation at subG1 phase at 20 uM after 24 hrs by propidium iodide staining based flow cytometry (reference value: 1%).
In experiment [4] the test system is HeLa. Put plainly: Induction of cell cycle arrest in human HeLa cells assessed as accumulation at G1 phase at 20 uM after 24 hrs by propidium iodide staining based flow cytometry (reference value: 45%).
The nature of experiment [5]: Antiproliferative activity against human HMEC1 cells assessed as inhibition of cell proliferation after 4 days by Coulter counter based cell counting method. The note with it: HMEC-1, 96 h.
The test system of experiment [6] is HeLa. Put plainly: Induction of cell cycle arrest in human HeLa cells assessed as accumulation at S phase at 100 uM after 24 hrs by propidium iodide staining based flow cytometry (reference value: 24%).
Experiment [7] deals with HeLa. Put plainly: Antiproliferative activity against human HeLa cells assessed as inhibition of cell proliferation after 4 days by Coulter counter based cell counting method. The note with it: 96 h.
For experiment [8], the system named is HeLa. Nature of the experiment: Induction of cell cycle arrest in human HeLa cells assessed as accumulation at G2/M phase at 20 uM after 24 hrs by propidium iodide staining based flow cytometry (reference value: 31%).
The test system of experiment [9] is HeLa. Put plainly: Induction of cell cycle arrest in human HeLa cells assessed as accumulation at S phase at 20 uM after 24 hrs by propidium iodide staining based flow cytometry (reference value: 24%).
The test system of experiment [10] is HeLa. Put plainly: Induction of cell cycle arrest in human HeLa cells assessed as accumulation at G2/M phase at 100 uM after 24 hrs by propidium iodide staining based flow cytometry (reference value: 31%).
Experiment [11] in a line: Antiproliferative activity against BAEC assessed as inhibition of cell proliferation after 3 days by Coulter counter based cell counting method. The conditions noted are these: Bos taurus, 72 h.
The next experiment deals with L1210. Nature of the experiment: Antiproliferative activity against mouse L1210 assessed as inhibition of cell proliferation after 48 hrs by Coulter counter based cell counting method. The conditions noted are these: L1210, 48 h.
Experiment [12] concerns HeLa. Put plainly: Induction of cell cycle arrest in human HeLa cells assessed as accumulation at subG1 phase at 100 uM after 24 hrs by propidium iodide staining based flow cytometry (reference value: 1%).
A further experiment concerns CCRF-CEM. Put plainly: Antiproliferative activity against human CEM cells assessed as inhibition of cell proliferation after 96 hrs by Coulter counter based cell counting method.
For experiment [13], the system named is HeLa. Put plainly: Induction of cell cycle arrest in human HeLa cells assessed as accumulation at G1 phase at 4 uM after 24 hrs by propidium iodide staining based flow cytometry (reference value: 45%).
Experiment [14] relates to HeLa. Put plainly: Induction of cell cycle arrest in human HeLa cells assessed as accumulation at subG1 phase at 4 uM after 24 hrs by propidium iodide staining based flow cytometry (reference value: 1%).
Experiment [15] concerns HeLa. Nature of the experiment: Induction of cell cycle arrest in human HeLa cells assessed as accumulation at G2/M phase at 4 uM after 24 hrs by propidium iodide staining based flow cytometry (reference value: 31%).
In experiment [16] the test system is HeLa. Put plainly: Induction of cell cycle arrest in human HeLa cells assessed as accumulation at S phase at 4 uM after 24 hrs by propidium iodide staining based flow cytometry (reference value: 24%).
Experiment [17] has as its system HeLa. Nature of the experiment: Induction of cell cycle arrest in human HeLa cells assessed as accumulation at S phase at 0.1 uM after 24 hrs by propidium iodide staining based flow cytometry (reference value: 24%).
Experiment [18] concerns HeLa. Nature of the experiment: Induction of cell cycle arrest in human HeLa cells assessed as accumulation at G2/M phase at 0.1 uM after 24 hrs by propidium iodide staining based flow cytometry (reference value: 31%).
Experiment [19] concerns HeLa. Nature of the experiment: Induction of cell cycle arrest in human HeLa cells assessed as accumulation at subG1 phase at 0.1 uM after 24 hrs by propidium iodide staining based flow cytometry (reference value: 1%).
Experiment [20] concerns HeLa. Nature of the experiment: Induction of cell cycle arrest in human HeLa cells assessed as accumulation at G1 phase at 0.1 uM after 24 hrs by propidium iodide staining based flow cytometry (reference value: 45%).

This passage reports Activity and IC50 results from ChEMBL document CHEMBL3352643, “Synthesis and antiproliferative activity of 6-phenylaminopurines” (Eur J Med Chem, 2014).

pIC50: −log10 of the molar value.

The term pIC50 denotes the IC50 on a negative log10 scale, so that one unit is a factor of ten. For the compound `COc1ccc(N(C)c2nc(C)nc3c2nc(C)n3C)cc1`, the Activity is 8% in the experiment on HeLa [1]; 39% in the experiment on HeLa [3]; 18% with HeLa [4]; 15% with HeLa [6]; 25% in the experiment with HeLa [8]; 29% in the experiment on HeLa [9]. Besides, the values for the Activity in the experiment with HeLa [10] and in the experiment with HeLa [12] were 63% and 14%, respectively. Further, the pIC50 in experiment [2] was 5.06; in experiment [5], 5.14; with HeLa [7] it was 5.35; in [11], 5.13; in the experiment with L1210 (read-out: IC50) it was 4.72; in the experiment on CCRF-CEM, 5.21.

For the compound `COc1ccc(Nc2nc(C)nc3c2nc(C)n3C)cc1`, the pIC50 is not above 4.00 in experiment [2]; not above 4.00 in [5]; 3.71 in the experiment on HeLa [7]; not above 4.00 in [11]; not above 3.60 in the experiment on L1210 (read-out: IC50); less than 3.60 in the experiment on CCRF-CEM.

As for `COc1cccc(N(C)c2nc(C)nc3c2nc(C)n3C)c1`, the pIC50 was not above 4.00 in experiment [2]; not above 4.00 in experiment [5]; less than 3.60 in the experiment with HeLa [7]; not above 4.00 in [11]; less than 3.60 with L1210 (read-out: IC50); less than 3.60 in the experiment on CCRF-CEM.

Take `Cc1ccc(N(C)c2nc(C)nc3c2nc(C)n3C)cc1`: the pIC50 is less than 4.00 in experiment [2]; less than 4.00 in experiment [5]; not above 3.60 in the experiment on HeLa [7]; less than 4.00 in experiment [11]; not above 3.60 with L1210 (read-out: IC50); 3.79 in the experiment on CCRF-CEM.

On to `Cc1nc(N(C)c2ccc(OC(F)(F)F)cc2)c2nc(C)n(C)c2n1`, for which the pIC50 in [2] was less than 4.00; in experiment [5] it was less than 4.00; with HeLa [7], 3.73; in experiment [11], less than 4.00; in the experiment with L1210 (read-out: IC50), less than 3.60; in the experiment on CCRF-CEM, 3.88.

Take `COc1ccc(N(C)c2ncnc3c2nc(C)n3C)cc1`: the pIC50 is not above 4.00 in [2]; not above 4.00 in [5]; less than 3.60 in the experiment with HeLa [7]; not above 4.00 in experiment [11]; less than 3.60 in the experiment with L1210 (read-out: IC50); less than 3.60 in the experiment on CCRF-CEM.

`COc1ccc(N(C)c2nc(C)nc3c2ncn3C)cc1`: the pIC50 is 4.82 in [2]; 5.04 in experiment [5]; 4.66 in the experiment on HeLa [7]; 5.03 in experiment [11]; 4.52 in the experiment on L1210 (read-out: IC50); 4.68 in the experiment with CCRF-CEM.

Regarding `COc1ccc(N(C)c2nc(C)nc3[nH]c(C)nc23)cc1`, the Activity worked out at 6% with HeLa [1]; 5% with HeLa [3]; 39% with HeLa [4]; 15% in the experiment on HeLa [6]; 31% in the experiment on HeLa [8]; 27% in the experiment on HeLa [9]. The Activity with HeLa [10] was 68%; with HeLa [12] it was 11%. Also, the pIC50 in experiment [2] was 5.05; in experiment [5], 5.15; with HeLa [7] it was 4.85; in experiment [11] it was 5.05; in the experiment with L1210 (read-out: IC50) it was 3.64; in the experiment on CCRF-CEM, 4.64.

For `CCN(c1ccc(OC)cc1)c1nc(C)nc2c1nc(C)n2C`, the Activity was found to be 12% in the experiment with HeLa [1]; 6% in the experiment on HeLa [3]; 39% in the experiment on HeLa [4]; 18% with HeLa [6]; 28% in the experiment on HeLa [8]; 27% with HeLa [9]. In addition, the Activity is 34% in the experiment with HeLa [10] and 36% in the experiment on HeLa [12]. In addition, the pIC50 in [2] was 4.82; in experiment [5], 5.06; in the experiment with HeLa [7] it was 4.70; in experiment [11], 4.96; in the experiment on L1210 (read-out: IC50) it was 4.46; in the experiment with CCRF-CEM, 4.80.

Take `COc1ccc2c(c1)CCCN2c1nc(C)nc2c1nc(C)n2C`: the Activity with HeLa [13] is given as 35%; in the experiment on HeLa [14], 20%; in the experiment on HeLa [1], 3%; with HeLa [3] it was 7%; in the experiment with HeLa [4] it was 3%; with HeLa [6], 8%. Further, the Activity came out at 80% with HeLa [8]; 8% in the experiment with HeLa [9]; 79% with HeLa [10]; 27% with HeLa [15]; 18% in the experiment on HeLa [16]; 8% with HeLa [12]. For the same compound, the pIC50 is 5.36 in experiment [2]; 5.64 in experiment [5]; 5.36 in the experiment with HeLa [7]; 5.62 in experiment [11]; 5.29 in the experiment on L1210 (read-out: IC50); 5.46 in the experiment on CCRF-CEM.

On to `COc1cc2c(c(OC)c1OC)-c1ccc(OC)c(=O)cc1[C@@H](NC(C)=O)CC2` [COLCHICINE], for which the pIC50 is 7.51 in experiment [2], 8.16 in experiment [11], 7.85 with L1210 and 7.51 in the experiment with CCRF-CEM. Moreover, the Activity worked out at 10% in the experiment with HeLa [17], 80% in the experiment on HeLa [18], 6% in the experiment with HeLa [19] and 5% with HeLa [20].
